Values quoted from earlier work, collected in patent US6541424B2, “Manufacture and use of a herbicide formulation” (Helena Chemical Company, priority 2000, dated 2003).

O=C(O)CNCP(=O)(O)O [Glyphosate]
solubility in water: approximately 1.2%
